The source of these data is PubChem BioAssay (NCI).

Among the test systems are OVCAR-4 ovarian; DU-145 prostate; OVCAR-8 ovarian; MDA-MB-435; NCI/ADR-RES ovarian; SF-539 CNS; OVCAR-3 ovarian; SNB-75 CNS; HCC-2998 colon; CCRF-CEM leukemia.
Holding throughout (experiment): NCI anticancer screen, dose series, 48 h

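Exposure lasted 48 hours, with cells grown in 96-well plates and compounds tested at five concentrations. GI50: concentration for 50% inhibition of growth. TGI is the concentration that stops growth completely.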

As for `N#Cc1c(NC(=O)CCC(=O)O)ccc2ccccc12`, the TGI in the experiment with OVCAR-4 ovarian, in the experiment with DU-145 prostate, in the experiment with OVCAR-8 ovarian, in the experiment with MDA-MB-435, with NCI/ADR-RES ovarian and with SF-539 CNS was above 100 µM throughout. Besides, the TGI in the experiment on OVCAR-3 ovarian and with SNB-75 CNS was above 100 µM in each case.
For `COc1ccc(/C=N/NC(=O)O)cc1`, the TGI in the experiment on HCC-2998 colon, with OVCAR-4 ovarian, in the experiment with DU-145 prostate, with MDA-MB-435, in the experiment on NCI/ADR-RES ovarian and in the experiment with SF-539 CNS was above 100 µM throughout. Moreover, the TGI in the experiment on OVCAR-3 ovarian and in the experiment with SNB-75 CNS was above 100 µM each time.
Turning to `COCCOC(C)C(/C=N/NC(N)=S)=N/NC(N)=S` (stereo not given), the GI50 in the experiment on HCC-2998 colon is above 100 µM; in the experiment with OVCAR-4 ovarian it was 0.0355 µM; in the experiment with DU-145 prostate, above 100 µM; with OVCAR-8 ovarian it was above 100 µM; in the experiment with MDA-MB-435, above 100 µM; with NCI/ADR-RES ovarian it was 0.0732 µM. For the same compound, the GI50 was above 100 µM in the experiment on SF-539 CNS, 0.0252 µM with OVCAR-3 ovarian and above 100 µM with SNB-75 CNS. Further, the TGI in the experiment on HCC-2998 colon, with OVCAR-4 ovarian, with DU-145 prostate, with OVCAR-8 ovarian, with MDA-MB-435 and in the experiment on NCI/ADR-RES ovarian was above 100 µM throughout. For the same compound, the TGI in the experiment on SF-539 CNS and in the experiment with SNB-75 CNS was above 100 µM throughout.
As to `O=C(c1cccs1)c1c(C(F)(F)F)n([O-])c2cc(F)c(F)cc2[n+]1=O`, the GI50 was 6.65 µM in the experiment with HCC-2998 colon; 31.9 µM in the experiment with OVCAR-4 ovarian; 0.18 µM in the experiment with CCRF-CEM leukemia; 1.9 µM with DU-145 prostate; 2.77 µM with OVCAR-8 ovarian; 2.62 µM in the experiment on MDA-MB-435. The GI50 with NCI/ADR-RES ovarian is 2.1 µM; with SF-539 CNS it was 0.314 µM; in the experiment with OVCAR-3 ovarian it was 1.66 µM. Also, the TGI in the experiment with HCC-2998 colon came to 9.07 µM; in the experiment with OVCAR-4 ovarian, 50 µM; with CCRF-CEM leukemia, 0.729 µM; in the experiment on DU-145 prostate, 4.86 µM; with OVCAR-8 ovarian, 5.16 µM; with MDA-MB-435, 5.28 µM. The TGI is 4.77 µM with NCI/ADR-RES ovarian, 0.588 µM with SF-539 CNS and 4.14 µM in the experiment with OVCAR-3 ovarian.
For the compound `NC(=O)c1c(OCc2c(F)cc(Br)cc2F)nsc1NC(=O)NCCCCN1CCCC1`, the GI50 is 5.26 µM in the experiment on HCC-2998 colon; above 10 µM with OVCAR-4 ovarian; 2.77 µM with CCRF-CEM leukemia; 4.59 µM with DU-145 prostate; 4 µM in the experiment with OVCAR-8 ovarian; 2.26 µM in the experiment on MDA-MB-435. In addition, the GI50 in the experiment with NCI/ADR-RES ovarian was 5.82 µM; in the experiment on SF-539 CNS it was 1.38 µM; in the experiment on OVCAR-3 ovarian, 1.81 µM. In addition, the TGI with HCC-2998 colon is above 10 µM; in the experiment with OVCAR-4 ovarian, above 10 µM; in the experiment with CCRF-CEM leukemia, 8.17 µM; in the experiment with DU-145 prostate, above 10 µM; in the experiment with OVCAR-8 ovarian, above 10 µM; with MDA-MB-435, 6.75 µM. The TGI in the experiment on NCI/ADR-RES ovarian was above 10 µM; in the experiment with SF-539 CNS it was 2.92 µM; with OVCAR-3 ovarian it was 4.52 µM.
`NC1=C(c2nc(-c3cc4ccccc4oc3=O)cs2)C(c2ccco2)c2c(c3ccccc3oc2=O)O1` (stereo not given): the GI50 in the experiment with HCC-2998 colon was above 150 µg/mL; with OVCAR-4 ovarian it was 68.3 µg/mL; in the experiment on CCRF-CEM leukemia, 53.8 µg/mL; with DU-145 prostate it was above 150 µg/mL; in the experiment on OVCAR-8 ovarian, above 150 µg/mL; with MDA-MB-435, above 150 µg/mL. Moreover, the values for the GI50 with NCI/ADR-RES ovarian, with SF-539 CNS and with OVCAR-3 ovarian were above 150 µg/mL, 96.9 µg/mL and above 150 µg/mL, respectively. The TGI in the experiment with HCC-2998 colon is above 150 µg/mL; in the experiment on OVCAR-4 ovarian it was above 150 µg/mL; in the experiment on CCRF-CEM leukemia, 147 µg/mL; in the experiment on DU-145 prostate, above 150 µg/mL; in the experiment on OVCAR-8 ovarian it was above 150 µg/mL; in the experiment on MDA-MB-435, above 150 µg/mL. Also, the TGI in the experiment on NCI/ADR-RES ovarian, in the experiment with SF-539 CNS and in the experiment on OVCAR-3 ovarian was above 150 µg/mL in each case.
On to `COc1ccc2[nH]cc(/C=C3\C(=O)Nc4ccccc43)c2c1`, for which the GI50 with OVCAR-4 ovarian was 6.21 µM; with CCRF-CEM leukemia, 3.94 µM; in the experiment with DU-145 prostate, 5.2 µM; in the experiment on OVCAR-8 ovarian, 7.02 µM; in the experiment with MDA-MB-435, 2.39 µM; with NCI/ADR-RES ovarian, 4.97 µM. Moreover, the GI50 is 5.43 µM with SF-539 CNS, 9.62 µM in the experiment on OVCAR-3 ovarian and 3.14 µM in the experiment on SNB-75 CNS. Moreover, the TGI in the experiment on OVCAR-4 ovarian came out at 60.3 µM; with CCRF-CEM leukemia, 18.8 µM; in the experiment with DU-145 prostate it was 22.3 µM; in the experiment with OVCAR-8 ovarian it was 21.8 µM; in the experiment on MDA-MB-435, 5.97 µM; in the experiment on NCI/ADR-RES ovarian, 37 µM. For the same compound, the values for the TGI in the experiment on SF-539 CNS, with OVCAR-3 ovarian and in the experiment on SNB-75 CNS were 18.1 µM, 35.9 µM and 15.1 µM, respectively.
For `CSC(=S)NN=C1CCCCC1`, the TGI in the experiment on OVCAR-4 ovarian was above 100 µM; in the experiment on CCRF-CEM leukemia it was 87.8 µM; in the experiment with DU-145 prostate, above 100 µM; with OVCAR-8 ovarian it was above 100 µM; in the experiment on MDA-MB-435, above 100 µM; in the experiment with NCI/ADR-RES ovarian it was 60.6 µM. The TGI was 67.7 µM in the experiment on SF-539 CNS, above 100 µM in the experiment on OVCAR-3 ovarian and above 100 µM in the experiment with SNB-75 CNS.
For `C=CC1=C(C)C2=NC1=CC1=NC(=C(CC)/C1=C/O)C=C1C=C3C(=O)C(C(=O)OC)C(=C4NC(=C2)C(C)C4CCC(=O)OC/C=C(\C)CCCC(C)CCCC(C)CCCC(C)C)C3=N1` (stereo not given) (tested in a mixture with another compound), the TGI in the experiment with HCC-2998 colon, with OVCAR-4 ovarian, with DU-145 prostate, in the experiment on OVCAR-8 ovarian, with MDA-MB-435 and with NCI/ADR-RES ovarian was above 100 µM throughout. Also, the TGI in the experiment on SF-539 CNS, in the experiment with OVCAR-3 ovarian and with SNB-75 CNS was above 100 µM each time.
As to `O=C(N/N=C/c1cc2ccccc2c2ccccc12)c1cc(O)c(O)c(O)c1`, the GI50 is 8.54 µM in the experiment on HCC-2998 colon; 2.38 µM in the experiment with OVCAR-4 ovarian; 2.87 µM in the experiment with CCRF-CEM leukemia; 5.79 µM in the experiment on DU-145 prostate; 3.72 µM in the experiment with OVCAR-8 ovarian; 3.58 µM in the experiment with MDA-MB-435. The GI50 is 12.4 µM in the experiment on NCI/ADR-RES ovarian, 2.17 µM in the experiment with SF-539 CNS and 2.1 µM in the experiment on SNB-75 CNS. In addition, the TGI was 22.4 µM with HCC-2998 colon; 35.8 µM in the experiment with OVCAR-4 ovarian; above 100 µM with CCRF-CEM leukemia; 27 µM with DU-145 prostate; 15.6 µM in the experiment on OVCAR-8 ovarian; 16.9 µM in the experiment on MDA-MB-435. For the same compound, the TGI in the experiment on NCI/ADR-RES ovarian was above 100 µM; with SF-539 CNS, 5.8 µM; in the experiment with SNB-75 CNS, 14.3 µM.
On to `O=c1cccc(C#CCCCCOC2CCCO2)o1` (stereo not given), for which the GI50 was above 33.4 µM with OVCAR-4 ovarian; 7.14 µM in the experiment on CCRF-CEM leukemia; 10.3 µM with DU-145 prostate; 14.2 µM in the experiment on OVCAR-8 ovarian; 16.1 µM in the experiment with MDA-MB-435; 12.2 µM with NCI/ADR-RES ovarian. Moreover, the GI50 is 4.75 µM with SF-539 CNS, 11.2 µM in the experiment with OVCAR-3 ovarian and 11.4 µM in the experiment on SNB-75 CNS. The TGI with OVCAR-4 ovarian is above 60.1 µM; with CCRF-CEM leukemia, above 79.9 µM; with DU-145 prostate it was above 80 µM; in the experiment on OVCAR-8 ovarian, above 80.7 µM; in the experiment on MDA-MB-435, 44.8 µM; in the experiment on NCI/ADR-RES ovarian, above 18 µM. The TGI in the experiment on SF-539 CNS was above 36.6 µM; in the experiment with OVCAR-3 ovarian, 27.1 µM; in the experiment on SNB-75 CNS, above 21.4 µM.
With `c1ccc(-c2cc(-c3cc(-c4ccccn4)[nH]n3)n[nH]2)nc1`, the TGI was 83.6 µM in the experiment on HCC-2998 colon; above 100 µM in the experiment with OVCAR-4 ovarian; above 100 µM in the experiment on DU-145 prostate; above 100 µM in the experiment on OVCAR-8 ovarian; above 100 µM with MDA-MB-435; above 100 µM with NCI/ADR-RES ovarian. Moreover, the TGI in the experiment with SF-539 CNS, in the experiment with OVCAR-3 ovarian and with SNB-75 CNS was above 100 µM in each case.
In the case of `O=C1/C(=C\c2ccccc2)c2ccccc2N1Cc1ccccc1`, the TGI in the experiment on HCC-2998 colon turned out to be 16.4 µM; in the experiment with OVCAR-4 ovarian it was 27.5 µM; with CCRF-CEM leukemia it was 12.6 µM; with DU-145 prostate it was 17 µM; in the experiment on OVCAR-8 ovarian, 19 µM; in the experiment with MDA-MB-435, 16.5 µM. Further, the TGI was 19.2 µM in the experiment on NCI/ADR-RES ovarian, 11.9 µM with OVCAR-3 ovarian and 22.8 µM with SNB-75 CNS.
For the compound `C[C@]12CC[C@@H]3c4ccc(O)cc4CC[C@H]3[C@@H]1CC[C@@H]2NS(=O)(=O)c1cccc(Br)c1`, the GI50 in the experiment on HCC-2998 colon was 4.31 µM; in the experiment on OVCAR-4 ovarian, 2.45 µM; in the experiment on CCRF-CEM leukemia it was 3.06 µM; in the experiment with DU-145 prostate, 5.22 µM; in the experiment on OVCAR-8 ovarian it was 3.98 µM; in the experiment with MDA-MB-435 it was 2.69 µM. Further, the GI50 in the experiment on NCI/ADR-RES ovarian is 3.14 µM; in the experiment on SF-539 CNS, 2.6 µM; in the experiment with SNB-75 CNS it was 2.9 µM. For the same compound, the TGI with HCC-2998 colon turned out to be 15.9 µM; in the experiment with OVCAR-4 ovarian, 9.98 µM; in the experiment with CCRF-CEM leukemia, 20.3 µM; in the experiment with DU-145 prostate, 17 µM; with OVCAR-8 ovarian, 16.7 µM; with MDA-MB-435, 9.21 µM. In addition, the TGI with NCI/ADR-RES ovarian is 13.6 µM; with SF-539 CNS, 8.8 µM; in the experiment with SNB-75 CNS, 13.5 µM.
